Measured values: patent US20220370434A1, “METHODS AND COMPOSITIONS FOR TREATING CANCER” (City of Hope, priority 2019, published 2022)

Key:
[1] = system: PD-L1 and PD-L2 in AML cells (MONOMAC 6); assay: Expression of PD-L1 and PD-L2 upon DNMT inhibitor treatment; conditions: for expression of PD-L1/2: in AML
Description: Expression of PD-L1, PD-L2, and m^6A abundance upon DNMT inhibitor treatment in AML cells was analyzed. MONOMAC 6 cells were treated with PBS, 1 μM, 3 μM, and 5 μM DAC for 48 hours.

MA9.3ITD AML cells = assay: Xenograft AML mouse model with MA9.3ITD cells; conditions: cells pretreated 100 nM 48 hours; 2 mg/kg/day every other day i.p., ten treatments
Description: For xenograft AML models with NRGS mice, the leukemia AML cells, with high endogenous FTO expression, were pretreated with 100 nM FTO inhibitors for 48 hours before transplantation, and drug treatment was started at day 11 after transplantation.
Xenograft AML mouse models and AML PDX mouse models: NRG-SGM3 mice were used for both ‘human-in-mouse’ xeno-transplanation models and PDX models. […] For xenograft mouse, 0.1×10^6 MA9.3ITD cells were transplanted into NRGS recipient mice intravenously. Drug treatment was started from 10 days after transplanatation.

breast tumors = assay: Anti-tumor effects in solid tumors; format: cell-based
Excerpt: (§1) Besides in hematopoietic malignancy, FTO also plays oncogenic function in solid tumors, such as glioblastoma (GBM) and lung squamous cell carcinoma (LUSC). To broaden the application of the FTO inhibitors in additional cancers, expression of FTO in various types of cancers was adopted from cBioPortal for Cancer Genomics (http://www.cbioportal.org/).
(§2) Cell culture: For leukemia cells, U937 and MV4-11 were obtained from American Type Culture Collection (ATCC) and cultured in endotoxin-free RPMI1640 supplemented with 10% fetal bovine serum (FBS) (Gemini Bio-Products); K562 (ATCC) was cultured in IMDM with 10% FBS; NOMO-1, ML-2, NB4 were obtained from DSMZ and kept in RPM11640 with 10% FBS; SKNO-1 (DSMZ) was maintained in RPM11640 with 10% FBS and 10 ng/ml GM-CSF; MA9.3ITD (MLL-AF9 plus FLT3-ITD-transformed human CD34^+ cord blood) and MA9.3RAS (MLL-AF9 plus NRasG12D-transformed human CD34^+ cord blood), established by Dr. James Mulloy (30), were maintained in IMDM supplemented with 20% FBS. AML patient-derived primary cells were kept in IDMD supplemented with 20% FBS, 10 ng/ml human cytokines SCF, TPO, FLT3 ligand, IL-3, and IL-6. The glioblastoma cell lines, including 8MGBA, A172 and U87MG were originally maintained by Dr. David Plas from University of Cincinnati, and cultured in RPMI1640 with 10% FBS. Breast tumor cell lines, including ZR-75-1 and MDA-MB-231, were purchased from ATCC, and cultivated in RPMI1640 with 10% FBS. The cell lines from lung cancer, H1993, H2009, and H1437, and pancreatic cancer cells Capan-1 and miAPACA2 were kindly provided by Dr. Ravi Salgia from City of hope, and maintained in RPMI1640 with 10% FBS. All the cells are not among commonly misidentified cells lines, and were tested for Mycoplasma contamination yearly using a PCR Mycoplasma Detection Kit (Applied Biological Materials Inc.). In order to prevent potential contamination, all the mediums were supplemented with Penicillin-Streptomycin (15140122, Life Technologies) and Plasmocin prophylactic (Applied Biological Materials Inc.) according to the manufacture's instruction.

pancreatic cancer = assay: Anti-tumor effects in solid tumors; format: cell-based
Excerpt: as §1, §2

Glioma = assay: Anti-tumor effects in solid tumors; format: cell-based
Excerpt: as §1, §2

[2] = system: AML patient-derived CD34+ cells; assay: Cell viability of AML patient-derived CD34+ cells; format: cell-based, human; conditions: 100 nM formula (I), 200 nM formula (II), 48 hours
[3] = Solubility and uptake after i.p. injection (dissection); format: physicochemical, mice; conditions: yellow/orange crystals in abdomen
Description: Mice from PDX mouse model were treated with compound of formula (I) via i.p. injection and later dissected.

AML cells = assay: Sensitization of AML cells to other therapeutic agents; conditions: for effect with TKI in inhibiting viability: human AML cells
NOMO-1 cells = assay: Cell apoptosis assay; format: cell-based; conditions: 48 hour; 50, 200, 400 nM formula (I); 100, 500, 1000 nM formula (II)
Description: Cell cycle and apoptosis assays: Propidium Iodide (PI) DNA staining was chosen to assess the cells located at G0/G1, S, and G2/M stages; while Hoechest 33342 and Pyronin Y was selected to evaluate cells at G0, G1, and S/G2/M phases. For PI staining, 1*10^6 cells were collected, washed once with PBS, and suspended in 1 ml buffer with 0.05 mg/ml PI, 0.1% trisodium citrate, 0.02 mg/ml ribonuclease A, 0.3% NP-40, incubated at 37° C. for 30 minutes, and then applied to flow cytometer directly. As Hochest 33342/Pyronin Y staining, the cells were collected, washed, and re-suspended in 1 ml cell culture medium, stained with 10 μg/ml Hochest 33342 at 37° C. for 45 minutes, and further stained with 0.5 μg/ml Pyronin Y for additional 15 minutes at 37° C. The samples were transferred onto ice before subjected to flow cytometry. Cell apoptosis was validated with PE Annexin V Apoptosis Detection Kit I (559763, BD Biosciences) according to the instructed protocol. Flow cytometry was performed with Fortessa X20 and the related results were analyzed with FlowJo V10 software.

MONOMAC 6 cells = assay: Response to DNMT inhibitors after pretreatment; format: cell-based; conditions: pretreated 64 nM 48 hours; 100 nM DAC or 100 nM AZA
[4] = system: primary AML cells from a relapsed AML patient; assay: AML PDX mouse model; conditions: i.p.
Description: (§3) The experiment was repeated with secondary BMT with MA9 leukemic cells. […] 1×10^6 mononuclear cells (MNCs) were isolated from bone marrow of the AML patients and transplanted into NRGS recipient mice. Drug treatment (5 mg/kg/day, every other day treatment, 10 times in total) was started from day 8 after transplantation.
As PDX mouse models, 1×10^6 AML patient derived cells were transplanted into NRGS recipient mice intravenously, and drug treatment was started from 7 days later.

[5] = system: murine FLT3ITD/NPM1mut leukemic cells; assay: Colony forming assay; conditions: 10 nM or 50 nM
Description: (§4) Serial colony-forming assay: The assay was employed as described previously with some modification (31). […] The dishes were incubated at 37° C. in a humidified atmosphere of 5% C02 in air for 7 days. Then, colony cells were collected and replated every 7 days with 20,000 cells/dish for 3 passages. Colony numbers were counted and compared for each passage.

NB4 cells = assay: Combination with DNMT inhibitors, cell growth; format: cell-based; conditions: 48 hours, 256 nM formula (IIa)
Description: Cell proliferation was measured. […] This experiment was repeated with NB4 cells. […] Synergistic inhibitory effect of FTO inhibitor together with DNMT inhibitor on cell proliferation was observed.
NB4 AML cells were treated with 256 nM compound of formula (IIa), 1000 nM AZA, 100 nM DAC, or their combinations for 48 hours. Effects of compound of formula (IIa), DAC, AZA and combined effects of compound of formula (IIa) with either DAC or AZA on […] AML cell growth was measured (FIG. 9D).

HONO-1 AML cells = assay: Combination with DNMT inhibitors, cell growth; format: cell-based; conditions: 256 nM formula (IIa), 48 hours
Description: HONO-1 AML cells were treated with 256 nM compound of formula (IIa), 1000 nM AZA, 100 nM DAC, or their combinations for 48 hours. Effects of compound of formula (IIa), DAC, AZA and combined effects of compound of formula (IIa) with either DAC or AZA on HONO-1 AML cell growth was measured (FIG. 9C).

[6] = system: primary murine MLL-AF9 (MA9) leukemic cells; assay: Colony forming assay; conditions: 1 μM
Description: MA9 murine leukemic cells were used for colony forming assay.
as §4

Description for MA9 murine AML cells: as §3
The study was done following secondary BMT with murine MA9 cells, where drug treatment was initiated 7 days after BMT. […] Treatment strategy for DAC: 0.1 mg/kg/day, three times for one week, two weeks in total, i.p. injection.
The Lin^− progenitor cells were retrovirally transduced with MSCV-Neo-MA9 construct through two rounds of ‘spinoculation’ as described previously (31). […] For secondary BMT assays, primary leukemic mouse bone marrow cells (CD45.2+) were collected and sorted by flow cytometry when the mice developed full-blown AML. The cells were injected into sub-lethally irradiated (570 rads) secondary recipient mice with 0.1×10^6 donor cells per mouse via tail vein injection.

Row | SMILES | expression of PD-L1/2 [1] | growth (breast tumors) | growth (pancreatic cancer) | growth (Glioma) | cell viability [2] | sensitization to ATRA, DNR, Ara-C, Aza and DAC (AML cells) | effect with TKI in inhibiting viability (AML cells) | cell apoptosis (NOMO-1 cells) | also measured
1 | Nc1ncn([C@@H]2O[C@H](CO)[C@@H](O)[C@H]2O)c(=O)n1 [AZA, 5-azacytidine] | upregulation of PD-L1/2 |  |  |  |  |  |  |  | 
2 | Nc1ncn([C@H]2C[C@H](O)[C@@H](CO)O2)c(=O)n1 [DAC, 5-aza-2′-deoxycytidine] | upregulation of PD-L1/2 |  |  |  |  |  |  |  | expression of PD-L1 and PD-L2 ([1]; MONOMAC 6, 1 μM, 3 μM, 5 μM, 48 hours): induced expression of PD-L1 and PD-L2 in a dose dependent manner
3 | Cc1noc(C)c1-c1cc(Cl)c(Nc2ccccc2C(=O)NO)c(Cl)c1 [FB23-2, reference compound] |  |  |  |  |  |  |  |  | survival (Kaplan-Meier) (MA9.3ITD AML cells): lived significantly longer than the control groups
4 | C(=N\NC1=NCCN1)/c1c2ccccc2c(/C=N/NC2=NCCN2)c2ccccc12 [formula (I)] |  | growth disadvantage | growth disadvantage | growth disadvantage | significantly decreased cell viability of AML | sensitize AML cells | synergize with TKI | dose-dependent increase in cell apoptosis | solubility and uptake [3]: extreme low solubility and uptake; inhibition of cell proliferation by DAC or AZA after pretreatment (MONOMAC 6 cells): increased inhibition in cell proliferation
5 | Cc1c(-c2ccc(-c3ccccc3F)cc2)nc2ccc(F)cc2c1C(=O)O [formula (II)] |  | growth disadvantage | growth disadvantage | growth disadvantage | significantly decreased cell viability of AML | sensitize AML cells | synergize with TKI | dose-dependent increase in cell apoptosis | effect with DAC on survival (Kaplan-Meier) (MA9 murine AML cells; 5 mg/kg/day FTO inhibitor, DAC 0.1 mg/kg/day i.p.): synergistic effect; anti-leukemia effects (delaying leukemogenesis, improving survival) (MA9 murine AML cells; 5 mg/kg/day every other day, ten treatments, i.p. or i.v. (micelle)): promising anti-leukemia effects; anti-leukemia effect, survival (Kaplan-Meier) ([4]; 5 mg/kg/day every other day, 10 times, in PBS): strong anti-leukemia effect; anti-leukemia effect, engraftment of AML patient cells into bone marrow ([4]; hCD45 and hCD33 positive cells at day 26): strong anti-leukemia effect
6 | O=C(O)c1cc(-c2ccc(-c3ccccc3)cc2)nc2ccccc12 [formula (IIa)] |  |  |  |  |  |  |  |  | inhibitory effect on colony forming activity compared with formula (II) [5]: slightly stronger inhibitory effect; colony forming activity ([5]; b415): dose dependent decreased colony forming activity; effect with DAC on cell growth (NB4 cells; 100 nM DAC): synergistic effects; effect with AZA on cell growth (NB4 cells; 1000 nM AZA): synergistic effects; effect with DAC on cell growth (HONO-1 AML cells; 100 nM DAC): synergistic effects; effect with AZA on cell growth (HONO-1 AML cells; 1000 nM AZA): synergistic effects; colony forming activity [6]: decreased colony forming activity; inhibitory effect on colony forming activity compared with formula (II) [6]: slightly stronger inhibitory effect
